In US7767670B2, “Substituted 3-carboxamido isoxazoles as kinase modulators” (Ambit Biosciences Corporation, priority 2003, dated 2010):

Biological target: T1, MKNK2 (Homo sapiens, UniProt Q9HBH9)
T1 construct: made in house; host or cells: T7 bacteriophage display
Assay: Binding constant (Kd) measurement, phage-displayed kinase competition binding assay
Settings: immobilized ATP site ligand competition, read-out: activity towards the target (Kd)
Source text: Binding Constant (Kd) Measurements for Small-Molecule-Kinase Interactions

T1 sequence (Q9HBH9 whole entry): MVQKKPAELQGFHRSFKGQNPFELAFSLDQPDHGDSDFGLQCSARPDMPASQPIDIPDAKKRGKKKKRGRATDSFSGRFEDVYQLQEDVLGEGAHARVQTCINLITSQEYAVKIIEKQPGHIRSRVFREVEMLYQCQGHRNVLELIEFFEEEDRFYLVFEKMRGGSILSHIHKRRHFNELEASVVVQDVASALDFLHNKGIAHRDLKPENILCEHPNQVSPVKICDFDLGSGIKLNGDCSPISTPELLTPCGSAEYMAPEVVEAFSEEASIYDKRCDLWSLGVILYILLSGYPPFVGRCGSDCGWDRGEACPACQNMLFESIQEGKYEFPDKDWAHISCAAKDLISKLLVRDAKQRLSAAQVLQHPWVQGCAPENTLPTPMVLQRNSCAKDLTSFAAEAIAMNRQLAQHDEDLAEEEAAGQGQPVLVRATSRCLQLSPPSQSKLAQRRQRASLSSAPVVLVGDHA

Kd: < 50 nM
SMILES: CC(C)(C)c1cc(NC(=O)Cc2ccc(NC(=O)c3ccc4cnccc4n3)cc2)no1 [Compound F2]
